A short description of this data set: Aqueous solubility of the compound incubated for 12 hrs by UV-Vis spectrophotometry. The class given is physicochemical. To be noted: buffer.

In brackets after ≈: the same amount, converted by molar mass.

One may read the solubility as the dissolved amount per volume that the medium holds. Low readings indicate little dissolved substance, high ones much dissolved substance.

Compound `C=C[C@]1(C)C[C@@H](OC(=O)CSc2nc3cc[n+](Cc4ccc(F)cc4)cc3[nH]2)[C@]2(C)[C@H](C)CC[C@]3(CCC(=O)[C@H]32)[C@@H](C)[C@@H]1O.[Br-]` returned a solubility at 12 h of 0.159 mg/mL. Turning to `C=C[C@]1(C)C[C@@H](OC(=O)CSc2nc3cc[n+](Cc4cc(C)cc(C)c4)cc3s2)[C@]2(C)[C@H](C)CC[C@]3(CCC(=O)[C@H]32)[C@@H](C)[C@@H]1O.[Br-]`, the solubility at 12 h worked out at 0.392 mg/mL.

In turn, `C=C[C@]1(C)C[C@@H](OC(=O)CSc2nc3cc[n+](Cc4ccc(Cl)cc4)cc3[nH]2)[C@]2(C)[C@H](C)CC[C@]3(CCC(=O)[C@H]32)[C@@H](C)[C@@H]1O.[Br-]` had a solubility at 12 h of 0.419 mg/mL. This solubility at 12 h and that of the compound before are within 1.5-fold of each other. Next, `C=C[C@]1(C)C[C@@H](OC(=O)CSc2nc3cc[n+](Cc4ccc(-c5ccccc5)cc4)cc3[nH]2)[C@]2(C)[C@H](C)CC[C@]3(CCC(=O)[C@H]32)[C@@H](C)[C@@H]1O.[Br-]`: 0.367 mg/mL; `C=C[C@]1(C)C[C@@H](OC(=O)CSc2nc3cc[n+](Cc4ccc(OC)cc4)cc3[nH]2)[C@]2(C)[C@H](C)CC[C@]3(CCC(=O)[C@H]32)[C@@H](C)[C@@H]1O.[Br-]`: 0.149 mg/mL. In the case of `C=C[C@]1(C)C[C@@H](OC(=O)CSCCN(CC)CC)[C@]2(C)[C@H](C)CC[C@]3(CCC(=O)[C@H]32)[C@@H](C)[C@@H]1O` [TIAMULIN], the solubility at 12 h was determined as 0.128 mg/mL (≈ 259 µM). Next, `C=C[C@]1(C)C[C@@H](OC(=O)CSc2nc3cc[n+](Cc4ccc(F)cc4)cc3s2)[C@]2(C)[C@H](C)CC[C@]3(CCC(=O)[C@H]32)[C@@H](C)[C@@H]1O.[Br-]`: 0.395 mg/mL; `C=C[C@]1(C)C[C@@H](OC(=O)CSc2nc3cc[n+](Cc4cc(F)c(F)cc4F)cc3[nH]2)[C@]2(C)[C@H](C)CC[C@]3(CCC(=O)[C@H]32)[C@@H](C)[C@@H]1O.[Br-]`: 0.539 mg/mL; `C=C[C@]1(C)C[C@@H](OC(=O)CSc2nc3cc[n+](Cc4ccc(OC)cc4)cc3s2)[C@]2(C)[C@H](C)CC[C@]3(CCC(=O)[C@H]32)[C@@H](C)[C@@H]1O.[Br-]`: 0.177 mg/mL.

Turning to `C=C[C@]1(C)C[C@@H](OC(=O)CSc2nc3cc[n+](Cc4ccc(C(C)(C)C)cc4)cc3s2)[C@]2(C)[C@H](C)CC[C@]3(CCC(=O)[C@H]32)[C@@H](C)[C@@H]1O.[Br-]`, the solubility at 12 h was 0.453 mg/mL. As for `Br.C=C[C@]1(C)C[C@@H](OC(=O)CSc2nc3cc[n+](Cc4ccc([N+](=O)[O-])cc4)cc3s2)[C@]2(C)[C@H](C)CC[C@]3(CCC(=O)[C@H]32)[C@@H](C)[C@@H]1O`, the figure is 0.648 mg/mL; as for `C=C[C@]1(C)C[C@@H](OC(=O)CSc2nc3cc[n+](Cc4ccc(C(F)(F)F)cc4)cc3s2)[C@]2(C)[C@H](C)CC[C@]3(CCC(=O)[C@H]32)[C@@H](C)[C@@H]1O.[Br-]`, 0.246 mg/mL; as for `C=C[C@]1(C)C[C@@H](OC(=O)CSc2nc3cc[n+](Cc4ccc(Br)cc4)cc3[nH]2)[C@]2(C)[C@H](C)CC[C@]3(CCC(=O)[C@H]32)[C@@H](C)[C@@H]1O.[Br-]`, 0.432 mg/mL. As for `C=C[C@]1(C)C[C@@H](OC(=O)CSc2nc3cc[n+](Cc4cc(F)ccc4C#N)cc3s2)[C@]2(C)[C@H](C)CC[C@]3(CCC(=O)[C@H]32)[C@@H](C)[C@@H]1O.[Br-]`, the figure is 0.168 mg/mL; as for `C=C[C@]1(C)C[C@@H](OC(=O)CSc2nc3cc[n+](Cc4ccc(-c5ccccc5)cc4)cc3s2)[C@]2(C)[C@H](C)CC[C@]3(CCC(=O)[C@H]32)[C@@H](C)[C@@H]1O.[Br-]`, 0.391 mg/mL; as for `C=C[C@]1(C)C[C@@H](OC(=O)CSc2nc3cc[n+](Cc4cc(C)cc(C)c4)cc3[nH]2)[C@]2(C)[C@H](C)CC[C@]3(CCC(=O)[C@H]32)[C@@H](C)[C@@H]1O.[Br-]`, 0.414 mg/mL. As for `C=C[C@]1(C)C[C@@H](OC(=O)CSc2nc3cc[n+](Cc4cc(F)c(F)cc4F)cc3s2)[C@]2(C)[C@H](C)CC[C@]3(CCC(=O)[C@H]32)[C@@H](C)[C@@H]1O.[Br-]`, the figure is 0.485 mg/mL.

These data come from ChEMBL document CHEMBL6096719, “Kidney Targeting Smart Antibiotic Discovery: Multimechanism Pleuromutilins for Pyelonephritis Therapy” (J Med Chem, 2025).
